From patent publication US20150225404A1, “PYRIDINE DERIVATIVE AND MEDICINE” (NIPPON SHINYAKU CO., LTD., priority 2012, published 2015)
Structures can show the parent of a compound that is named as a salt.

Target: T1, human mGluR5 (Homo sapiens, UniProt P41594)
T1 construct: expressed in transfected cells
Experiment: Experiment for receptor function of mGluR5 (Ca2+-dependent fluorescence, FLIPR, CHO-K1 cells stably expressing human mGluR5)
Type: cell-based
Conditions: L-glutamic acid 10 μM, Fluo-4 fluorescence
Procedure: Stable expression cells in which the human mGluR5 gene had been introduced into a Chinese hamster ovary cell (CHO-K1) were used for evaluation. The cells were suspended in a growth medium (MEM-α (D8042, available from Sigma) containing 10% inactivated FBS (Cat. No. 171012, available from CCB) and 2 mM glutamax (Cat. No. 35050, available from GIBCO)) and seeded on a black clear-bottom 96-well plate at 100,000 cells per well. One day after seeding, the medium was replaced by a medium (Hanks' balanced salt solution (HBSS buffer solution) (20 mM HEPES, 2.5 mM probencide (165-15472, available from Wako Pure Chemical Industries, Ltd.), and 10×HBSS (14065-056, available from Gibco) diluted 10 times, pH 7.4)) containing a calcium-sensitive dye Fluo-4 AM at a final concentration of […] (F312, available from Dojindo Laboratories) and Pluronic F-127 at a final concentration of 0.0145% (P-2443, available from Sigma), followed by incubation at 37° C. for one hour, thereby loading Fluo-4 AM into the cells.
Subsequently, the cells were washed twice with an HBSS buffer solution, to which was subsequently added the same buffer solution. Twenty minutes thereafter, the plate was transferred into a fluorescence screening system (FLIPR TETRA, available from Molecular Devices, LLC) and measured for a Ca^2+-dependent fluorescence change in the cells.
First of all, a fluorescence baseline was measured, and thereafter, fluorescence measurement was performed for 2 minutes while adding a test substance, an excessive amount of 6-methyl-2-(phenylethynyl)pyridine (hereinafter referred to as “MPEP”) (final concentration: 10 μM), or the medium. Thereafter, fluorescence measurement was carried out for one minute while adding L-glutamic acid (final concentration: 10 μM).
While taking a fluorescence intensity caused by L-glutamic acid as 100% and a fluorescence intensity caused by L-glutamic acid in the presence of MPEP as 0%, respectively, function inhibitory activity against human mGluR5 was evaluated from the fluorescence intensity caused by L-glutamic acid in the presence of the test substance at each concentration, and an IC50 value was estimated according to a logistic equation (SAS System).

T1 sequence (P41594 21-1212): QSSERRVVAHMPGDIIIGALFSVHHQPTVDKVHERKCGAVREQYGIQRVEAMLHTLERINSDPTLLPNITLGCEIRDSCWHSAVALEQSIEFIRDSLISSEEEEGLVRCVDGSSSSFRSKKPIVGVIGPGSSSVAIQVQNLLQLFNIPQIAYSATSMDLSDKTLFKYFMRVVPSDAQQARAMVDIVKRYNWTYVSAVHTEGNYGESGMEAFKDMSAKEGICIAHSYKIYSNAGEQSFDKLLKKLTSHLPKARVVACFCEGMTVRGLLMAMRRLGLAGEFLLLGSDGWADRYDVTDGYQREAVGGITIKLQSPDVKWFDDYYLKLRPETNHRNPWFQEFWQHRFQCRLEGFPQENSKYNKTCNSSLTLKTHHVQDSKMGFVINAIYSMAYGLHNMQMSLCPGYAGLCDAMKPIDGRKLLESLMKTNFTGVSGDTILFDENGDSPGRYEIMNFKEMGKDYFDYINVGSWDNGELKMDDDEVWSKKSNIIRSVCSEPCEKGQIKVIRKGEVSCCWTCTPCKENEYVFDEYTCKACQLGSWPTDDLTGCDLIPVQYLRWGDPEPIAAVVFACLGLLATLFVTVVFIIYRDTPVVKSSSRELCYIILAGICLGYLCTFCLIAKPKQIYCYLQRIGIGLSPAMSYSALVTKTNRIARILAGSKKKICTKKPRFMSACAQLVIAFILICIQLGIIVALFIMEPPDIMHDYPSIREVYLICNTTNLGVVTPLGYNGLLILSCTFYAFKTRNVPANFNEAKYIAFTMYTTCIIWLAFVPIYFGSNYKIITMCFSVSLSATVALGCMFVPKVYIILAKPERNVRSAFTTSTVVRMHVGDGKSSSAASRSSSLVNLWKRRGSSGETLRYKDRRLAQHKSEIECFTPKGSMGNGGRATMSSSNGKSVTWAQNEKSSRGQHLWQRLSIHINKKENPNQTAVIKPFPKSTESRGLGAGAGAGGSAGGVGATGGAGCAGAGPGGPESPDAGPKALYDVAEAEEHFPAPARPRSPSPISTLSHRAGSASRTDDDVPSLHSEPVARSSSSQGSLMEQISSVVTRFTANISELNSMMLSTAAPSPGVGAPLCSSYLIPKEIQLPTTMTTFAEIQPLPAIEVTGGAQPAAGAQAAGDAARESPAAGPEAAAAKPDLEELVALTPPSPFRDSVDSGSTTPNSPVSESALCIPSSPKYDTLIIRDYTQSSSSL

Structure (SMILES)	IC50 [nM]
OCc1cncc(-c2cc(OCc3ccccn3)nc3c2CCCC3)c1 [Example 122, {5-[2-(Pyridin-2-ylmethoxy)-5,6,7,8-tetrahydroquinolin-4-yl]pyridin-3-yl}methanol hydrochloride]	72.7
COCc1cncc(-c2cc(OCc3ccccn3)nc3c2CCCC3)c1 [Example 123, 4-[5-(Methoxymethyl)pyridin-3-yl]-2-(pyridin-2-ylmethoxy)-5,6,7,8-tetrahydroquinoline hydrochloride]	58.8
Nc1cncc(-c2cc(OCc3ccccn3)nc3c2CCCC3)c1 [Example 124, 5-[2-(Pyridin-2-ylmethoxy)-5,6,7,8-tetrahydroquinolin-4-yl]pyridin-3-amine]	24.8
CNc1cncc(-c2cc(OCc3ccccn3)nc3c2CCCC3)c1 [Example 125, N-Methyl-5-[2-(pyridin-2-ylmethoxy)-5,6,7,8-tetrahydroquinolin-4-yl]pyridin-3-amine]	45.6
CN(C)c1cncc(-c2cc(OCc3ccccn3)nc3c2CCCC3)c1 [Example 126, N,N-Dimethyl-5-[2-(pyridin-2-ylmethoxy)-5,6,7,8-tetrahydroquinolin-4-yl]pyridin-3-amine]	99.8
Fc1ccc(COc2cc(-c3cccnc3F)c3c(n2)CCCC3)nc1 [Example 138, 4-(2-Fluoropyridin-3-yl)-2-[(5-fluoropyridin-2-yl)methoxy]-5,6,7,8-tetrahydroquinoline hydrochloride]	95
Fc1cccc(COc2cc(-c3cncnc3)c3c(n2)CCCC3)n1 [Example 144, 2-[(6-Fluoropyridin-2-yl)methoxy]-4-(pyrimidin-5-yl)-5,6,7,8-tetrahydroquinoline]	19.4
Fc1ccc(COc2cc(-c3cncnc3)c3c(n2)CCCC3)nc1 [Example 145, 2-[(5-Fluoropyridin-2-yl)methoxy]-4-(pyrimidin-5-yl)-5,6,7,8-tetrahydroquinoline]	74
Fc1ccnc(COc2cc(-c3cncnc3)c3c(n2)CCCC3)c1 [Example 146, 2-[(4-Fluoropyridin-2-yl)methoxy]-4-(pyrimidin-5-yl)-5,6,7,8-tetrahydroquinoline]	176
N#Cc1cccc(COc2cc(-c3cncnc3)c3c(n2)CCCC3)n1 [Example 149, 6-({[4-(Pyrimidin-5-yl)-5,6,7,8-tetrahydroquinolin-2-yl]oxy}methyl)pyridine-2-carbonitrile]	19.3
N#Cc1ccc(COc2cc(-c3cncnc3)c3c(n2)CCCC3)nc1 [Example 150, 6-({[4-(Pyrimidin-5-yl)-5,6,7,8-tetrahydroquinolin-2-yl]oxy}methyl)pyridine-3-carbonitrile]	63
N#Cc1ccnc(COc2cc(-c3cncnc3)c3c(n2)CCCC3)c1 [Example 151, 2-({[4-(Pyrimidin-5-yl)-5,6,7,8-tetrahydroquinolin-2-yl]oxy}methyl)pyridine-4-carbonitrile]	439
Cc1cccc(COc2cc(-c3cncnc3)c3c(n2)CCCC3)n1 [Example 152, 2-[(6-Methylpyridin-2-yl)methoxy]-4-(pyrimidin-5-yl)-5,6,7,8-tetrahydroquinoline]	44.8
Cc1cccnc1COc1cc(-c2cncnc2)c2c(n1)CCCC2 [Example 153, 2-[(3-Methylpyridin-2-yl)methoxy]-4-(pyrimidin-5-yl)-5,6,7,8-tetrahydroquinoline]	316
FC(F)(F)c1cccc(COc2cc(-c3cncnc3)c3c(n2)CCCC3)n1 [Example 154, 4-(Pyrimidin-5-yl)-2-{[6-(trifluoromethyl)pyridin-2-yl]methoxy}-5,6,7,8-tetrahydroquinoline hydrochloride]	280
Nc1cccc(COc2cc(-c3cncnc3)c3c(n2)CCCC3)n1 [Example 157, 6-({[4-(Pyrimidin-5-yl)-5,6,7,8-tetrahydroquinolin-2-yl]oxy}methyl)pyridin-2-amine]	333
CNc1cccc(COc2cc(-c3cncnc3)c3c(n2)CCCC3)n1 [Example 158, N-Methyl-6-({[4-(pyrimidin-5-yl)-5,6,7,8-tetrahydroquinolin-2-yl]oxy}methyl)pyridin-2-amine]	253
COCc1cccc(COc2cc(-c3cncnc3)c3c(n2)CCCC3)n1 [Example 160, 2-{[6-(Methoxymethyl)pyridin-2-yl]methoxy}-4-(pyrimidin-5-yl)-5,6,7,8-tetrahydroquinoline hydrochloride]	152
C=Cc1cccc(COc2cc(-c3cncnc3)c3c(n2)CCCC3)n1 [Example 161, 2-[(6-Ethenylpyridin-2-yl)methoxy]-4-(pyrimidin-5-yl)-5,6,7,8-tetrahydroquinoline]	359

Structure (SMILES)	IC50 [nM]
Fc1ncc(-c2cc(OCc3ccccn3)nc3c2CCCC3)cn1 [Example 167, 4-(2-Fluoropyrimidin-5-yl)-2-(pyridin-2-ylmethoxy)-5,6,7,8-tetrahydroquinoline hydrochloride]	20.4
Cc1ncc(-c2cc(OCc3ccccn3)nc3c2CCCC3)cn1 [Example 168, 4-(2-Methylpyrimidin-5-yl)-2-(pyridin-2-ylmethoxy)-5,6,7,8-tetrahydroquinoline]	153
Nc1ncc(-c2cc(OCc3ccccn3)nc3c2CCCC3)cn1 [Example 169, 5-[2-(Pyridin-2-ylmethoxy)-5,6,7,8-tetrahydroquinolin-4-yl]pyrimidin-2-amine]	13.9
Clc1ncncc1-c1cc(OCc2ccccn2)nc2c1CCCC2 [Example 176, 4-(4-Chloropyrimidin-5-yl)-2-(pyridin-2-ylmethoxy)-5,6,7,8-tetrahydroquinoline hydrochloride]	70.8
Cc1ncc(-c2cc(OCc3cccc(F)n3)nc3c2CCCC3)cn1 [Example 185, 2-[(6-Fluoropyridin-2-yl)methoxy]-4-(2-methylpyrimidin-5-yl)-5,6,7,8-tetrahydroquinoline]	26
Cc1ncc(-c2cc(OCc3ccc(F)cn3)nc3c2CCCC3)cn1 [Example 186, 2-[(5-Fluoropyridin-2-yl)methoxy]-4-(2-methylpyrimidin-5-yl)-5,6,7,8-tetrahydroquinoline]	26
c1ccc(COc2cc(-c3cnccn3)c3c(n2)CCCC3)nc1 [Example 194, 4-(Pyrazin-2-yl)-2-(pyridin-2-ylmethoxy)-5,6,7,8-tetrahydroquinoline hydrochloride]	11.4
Clc1cncc(-c2cc(OCc3ccccn3)nc3c2CCCC3)n1 [Example 195, 4-(6-Chloropyrazin-2-yl)-2-(pyridin-2-ylmethoxy)-5,6,7,8-tetrahydroquinoline]	24.3
Clc1cnc(-c2cc(OCc3ccccn3)nc3c2CCCC3)cn1 [Example 196, 4-(5-Chloropyrazin-2-yl)-2-(pyridin-2-ylmethoxy)-5,6,7,8-tetrahydroquinoline hydrochloride]	170
Clc1nccnc1-c1cc(OCc2ccccn2)nc2c1CCCC2 [Example 197, 4-(3-Chloropyrazin-2-yl)-2-(pyridin-2-ylmethoxy)-5,6,7,8-tetrahydroquinoline hydrochloride]	93.7
Fc1cncc(-c2cc(OCc3ccccn3)nc3c2CCCC3)n1 [Example 199, 4-(6-Fluoropyrazin-2-yl)-2-(pyridin-2-ylmethoxy)-5,6,7,8-tetrahydroquinoline hydrochloride]	24.5
Fc1nccnc1-c1cc(OCc2ccccn2)nc2c1CCCC2 [Example 200, 4-(3-Fluoropyrazin-2-yl)-2-(pyridin-2-ylmethoxy)-5,6,7,8-tetrahydroquinoline hydrochloride]	144
Cc1cncc(-c2cc(OCc3ccccn3)nc3c2CCCC3)n1 [Example 201, 4-(6-Methylpyrazin-2-yl)-2-(pyridin-2-ylmethoxy)-5,6,7,8-tetrahydroquinoline]	36.2
CCc1cncc(-c2cc(OCc3ccccn3)nc3c2CCCC3)n1 [Example 202, 4-(6-Ethylpyrazin-2-yl)-2-(pyridin-2-ylmethoxy)-5,6,7,8-tetrahydroquinoline]	43
OCc1cncc(-c2cc(OCc3ccccn3)nc3c2CCCC3)n1 [Example 204, {6-[2-(Pyridin-2-ylmethoxy)-5,6,7,8-tetrahydroquinolin-4-yl]pyrazin-2-yl}methanol]	230
COc1cncc(-c2cc(OCc3ccccn3)nc3c2CCCC3)n1 [Example 205, 4-(6-Methoxypyrazin-2-yl)-2-(pyridin-2-ylmethoxy)-5,6,7,8-tetrahydroquinoline hydrochloride]	93
Nc1cncc(-c2cc(OCc3ccccn3)nc3c2CCCC3)n1 [Example 206, 6-[2-(Pyridin-2-ylmethoxy)-5,6,7,8-tetrahydroquinolin-4-yl]pyrazin-2-amine hydrochloride]	36.5
Nc1cnc(-c2cc(OCc3ccccn3)nc3c2CCCC3)cn1 [Example 207, 5-[2-(Pyridin-2-ylmethoxy)-5,6,7,8-tetrahydroquinolin-4-yl]pyrazin-2-amine]	346
